Source: patent US20050282824A1, “Substituted pyrimidines as inhibitors of bacterial type III protein secretion systems” (priority 2004, published 2005)

test system: SPI1 type III protein secretion of SopE'-'Bla by Salmonella enterica; assay: Primary assay: Type III protein secretion of the chimeric SopE'-'Bla polypeptide by Salmonella enterica; type: cell-based; settings: read-out: SopE IC50(uM)
Description: Primary assay: Type III protein secretion of the chimeric SopE′-′Bla polypeptide by Salmonella enterica. This procedure is a cell-based assay that measures the type III-dependent secretion by Salmonella enterica of a plasmid-encoded chimeric polypeptide whose synthesis can be regulated, and which is endowed with an enzymatic activity that can be monitored […] by hydrolysis of a substrate that is unable to penetrate into the bacterial cytoplasm within the time constraints of the reaction. Thus, the colorimetric reaction is not influenced by SopE′-′Bla polypeptide in the bacterial cytoplasm. Instead, it effectively measures the amount of polypeptide that has been secreted from the S. enterica cytoplasm to the extracellular medium via type III system protein secretion.
The SopE′-′Bla recombinant polypeptide consists of two functionally distinct domains spliced together. The N-terminus domain is encoded by a polynucleotide region specifying the signal for type III secretion of the SopE polypeptide of S. enterica, an effector of the SPI1 type III protein secretion system. The C-terminus domain of SopE′-′Bla consists of a 263 amino acid peptide sequence that corresponds to the TEM-1 β-lactamase expressed by plasmid pBR322 but without its N-terminal signal sequence. The TEM-1 β-lactamase part of the SopE′-′Bla chimeric polypeptide is used as a reporter enzyme. It is capable of hydrolyzing nitrocefin resulting in a product whose accumulation can be monitored by colorimetric detection. The secretion of the SopE′-′Bla chimeric polypeptide from the cytoplasm to the extracellular medium is dependent on type III protein secretion.
For this procedure, cells grown under conditions known to favor a functional SPI1 secretion system are induced for expression of the SopE′-′Bla protein and grown either in the presence or in the absence of putative inhibitors for determined time. Nitrocefin is then added to the various cultures and its hydrolysis are used for quantitation. An inhibitor of Type III protein secretion is generally a compound that reduces the signal of the enzymatic reaction by decreasing the amount of SopE′-′Bla secreted into the extracellular medium.

With `CN1CCN(c2nc(C(=O)N[C@@H](COCc3ccccc3)C(=O)O)cc(N3CCN(c4nccc(C(F)(F)F)n4)CC3)n2)CC1` [Compound 45, (S)-3-Benzyloxy-2-({2-(4-methyl-piperazin-1-yl)-6-[4-(4-trifluoromethylpyrimidin-2-yl)piperazin-1-yl]pyrimidine-4-carbonyl}amino)propionic acid] as the compound, how does the IC50 read?
The IC50 was 60.7 µM.

Which IC50 does the source give for `O=C(N[C@H](Cc1ccc(Cl)cc1)C(=O)O)c1cc(N2CCc3ccccc3C2)nc(-c2ccc(F)cc2)n1` [Compound 9, (R)-3-(4-Chlorophenyl)-2-{[6-(3,4-dihydro-1H-isoquinolin-2-yl)-2-(4-fluoro-phenyl)Pyrimidine-4-carbonyl]amino}propionic acid] here?
Its IC50 is 8 µM.

With `O=C(N[C@@H](CSCc1ccccc1)C(=O)O)c1cc(N2CCCCC2)nc(N2CCC(c3ccccc3)CC2)n1` [Compound 29, (R)-3-Benzylsulfanyl-2-{[2-(4-phenylpiperidin-1-yl)-6-piperidin-1-yl-pyrimidine-4-carbonyl]amino}propionic acid] as the compound, how does the IC50 read?
The IC50 was 3.2 µM.

How did the IC50 turn out when `Cc1cc(C(=O)N[C@@H](CSCc2ccccc2)C(=O)O)nc(N2CCC(c3ccccc3)CC2)n1` [Compound 2, (R)-3-Benzylsulfanyl-2-{[6-methyl-2-(4-phenylpiperidin-1-yl)pyrimidine-4-carbonyl]amino}propionic acid] was run?
The IC50 was 34.2 µM.

With `O=C(N[C@H](Cc1ccc(Cl)cc1)C(=O)O)c1cc(N2CCc3ccccc3C2)nc(Cl)n1` [Compound 5, (R)-2-{[2-Chloro-6-(3,4-dihydro-1H-isoquinolin-2-yl)pyrimidine-4-carbonyl]amino}-3-(4-chlorophenyl)propionic acid] as the compound, how does the IC50 read?
Its IC50 is 32.7 µM.

test system: Type III protein secretion of ExoU by P. aeruginosa PA103; assay: Tertiary assay: Type III-dependent secretion of ExoU by P. aeruginosa PA103; type: cell-based; settings: Pseudomonas aeruginosa, read-out: ExoU IC50(uM)
Description: Tertiary assay: inhibition of Type III protein secretion of effectors from a Pseudomonas aeruginosa system. Type III protein secretion is used by P. aeruginosa to secrete several essential virulence determinants. One effector of the type III protein secretion system of P. aeruginosa PA 103 is the virulence determinants ExoU.
The amount of Type III-dependent secretion of ExoU by P. aeruginosa PA103 can be determined in a cell-based assay by quantification of the 73.9 kDa ExoU protein secreted into the extracellular medium. Such quantitation can be achieved by growing strain PA 103 in a deferrated medium in the presence of nitrilotriacetic acid (an inducer of Type III protein secretion in P. aeruginosa) and either in the presence or absence of putative inhibitors. After a prolonged growth period, the cells are sedimented and the supernatants concentrated by ammonium sulfate precipitation. The proteins in the resuspended pellets are separated by electrophoresis on SDS-polyacrylamide gels. After staining gels with Colloidal Blue™, the 73.9 kDa ExoU band is quantitated by scanning through an imager. The effects of inhibitors on the intensity of the ExoU band may be measured relative to that of untreated controls.

For `O=C(N[C@@H](CSCc1ccccc1)C(=O)O)c1cc(N2CCN(c3ccccn3)CC2)nc(N2CCN(c3ccccn3)CC2)n1` [Compound 66, (R)-3-Benzylsulfanyl-2-{[2,6-bis-(4-pyridin-2-yl-piperazin-1-yl)pyrimidine-4-carbonyl]amino}propionic acid], which IC50 is on record?
The IC50 was 52.8 µM.

How did the IC50 turn out when `CN(C)c1ccc(-c2nc(C(=O)N[C@@H](COCc3ccccc3)C(=O)O)cc(N3CCN(c4ccccn4)CC3)n2)cc1` [Compound 69, (S)-3-Benzyloxy-2-{[2-(4-dimethylaminophenyl)-6-(4-pyridin-2-yl-piperazin-1-yl)-pyrimidine-4-carbonyl]amino}propionic acid] was run?
Its IC50 is over 100 µM.

Which IC50 does the source give for `O=C(N[C@@H](COCc1ccccc1)C(=O)O)c1cc(N2CCN(c3ccccn3)CC2)nc(-c2cccs2)n1` [Compound 71, (S)-3-Benzyloxy-2-{[6-(4-pyridin-2-yl-piperazin-1-yl)-2-thiophen-2-yl-pyrimidine-4-carbonyl]amino}propionic acid] here?
Its IC50 is over 50 µM.

How did the IC50 turn out when `CN1CCN(c2cc(C(=O)N[C@@H](COCc3ccccc3)C(=O)O)nc(N3CCN(c4ccccn4)CC3)n2)CC1` [Compound 76, (S)-3-Benzyloxy-2-{[6-(4-methyl-piperazin-1-yl)-2-(4-pyridin-2-yl-piperazin-1-yl)-pyrimidine-4-carbonyl]amino}propionic acid] was run?
Its IC50 is over 50 µM.

How did the IC50 turn out when `O=C(NC(Cc1ccc(Cl)cc1)C(=O)O)c1cc(N2CCC(Cc3ccccc3)CC2)nc(-c2ccc(Cl)cc2)n1` (stereo not drawn) [Compound 79, 2-{[6-(4-Benzylpiperidin-1-yl)-2-(4-chlorophenyl)pyrimidine-4-carbonyl]amino}-3-(4-chlorophenyl)propionic acid] was run?
The IC50 was 64 µM.

`O=C(N[C@@H](COCc1ccccc1)C(=O)O)c1cc(N2CCN(c3ccccn3)CC2)nc(-c2ccoc2)n1` [Compound 73, (S)-3-Benzyloxy-2-{[2-furan-3-yl-6-(4-pyridin-2-yl-piperazin-1-yl)pyrimidine-4-carbonyl]amino}propionic acid] was tested. Which IC50 did it give?
The IC50 was over 50 µM.

Which IC50 does the source give for `O=C(N[C@@H](COCc1ccccc1)C(=O)O)c1cc(N2CCN(c3ccccn3)CC2)nc(N2CCN(c3ccccn3)CC2)n1` [Compound 65, (S)-3-Benzyloxy-2-{[2,6-bis-(4-pyridin-2-yl-piperazin-1-yl)pyrimidine-4-carbonyl]-amino}propionic acid] here?
The IC50 was 38.4 µM.

Which IC50 does the source give for `O=C(N[C@@H](CSCc1ccccc1)C(=O)O)c1cc(N2CCN(c3ccccn3)CC2)nc(-c2ccoc2)n1` [Compound 72, (R)-3-Benzylsulfanyl-2-{[2-furan-3-yl-6-(4-pyridin-2-yl-piperazin-1-yl)pyrimidine-4-carbonyl]amino}propionic acid] here?
Its IC50 is over 50 µM.

`CC1CCN(c2cc(C(=O)N[C@@H](CSCc3ccccc3)C(=O)O)nc(N3CCN(c4ccccn4)CC3)n2)CC1` [Compound 74, (R)-3-Benzylsulfanyl-2-{[6-(4-methylpiperidin-1-yl)-2-(4-pyridin-2-yl-piperazin-1-yl)pyrimidine-4-carbonyl]amino}propionic acid] was tested. Which IC50 did it give?
Its IC50 is over 50 µM.

For `CN(C)c1ccc(-c2nc(C(=O)NC(Cc3ccc(Cl)cc3)C(=O)O)cc(N3CCN(c4ccccn4)CC3)n2)cc1` (stereo not drawn) [Compound 70, 3-(4-Chlorophenyl)-2-{[2-(4-dimethylaminophenyl)-6-(4-pyridin-2-yl-piperazin-1-yl)pyrimidine-4-carbonyl]amino}propionic acid], which IC50 is on record?
Its IC50 is 29.8 µM.

`O=C(N[C@H](Cc1ccc(Cl)cc1)C(=O)O)c1cc(N2CCCc3ccccc32)nc(-c2ccc(-c3ccccc3)cc2)n1` [Compound 33, (R)-2-{[2-Biphenyl-4-yl-6-(3,4-dihydro-2H-quinolin-1-yl)pyrimidine-4-carbonyl]amino}-3-(4-chlorophenyl)propionic acid] was tested. Which IC50 did it give?
The IC50 was 24.4 µM.

`Cc1cc(C(=O)N[C@@H](CSCc2ccccc2)C(=O)O)nc(N2CCC(c3ccccc3)CC2)n1` [Compound 2, (R)-3-Benzylsulfanyl-2-{[6-methyl-2-(4-phenylpiperidin-1-yl)pyrimidine-4-carbonyl]amino}propionic acid] was tested. Which IC50 did it give?
The IC50 was over 100 µM.

Which IC50 does the source give for `O=C(N[C@H](Cc1ccc(Cl)cc1)C(=O)O)c1cc(N2CCCCC2)nc(-c2ccc(-c3ccccc3)cc2)n1` [Compound 34, (R)-2-[(2-Biphenyl-4-yl-6-piperidin-1-yl-pyrimidine-4-carbonyl)amino]-3-(4-chlorophenyl)propionic acid] here?
The IC50 was 71 µM.

How did the IC50 turn out when `CN1CCN(c2cc(C(=O)N[C@@H](CSCc3ccccc3)C(=O)O)nc(N3CCN(c4ccccn4)CC3)n2)CC1` [Compound 75, (R)-3-Benzylsulfanyl-2-{[6-(4-methyl-piperazin-1-yl)-2-(4-pyridin-2-yl-piperazin-1-yl)pyrimidine-4-carbonyl]amino}propionic acid] was run?
The IC50 was over 100 µM.

How did the IC50 turn out when `CC1CCN(c2nc(C(=O)N[C@@H](CSCc3ccccc3)C(=O)O)cc(N3CCN(c4ccccn4)CC3)n2)CC1` [Compound 64, (R)-3-Benzylsulfanyl-2-{[2-(4-methylpiperidin-1-yl)-6-(^4-pyridin-2-yl-piperazin-1-yl)pyrimidine-4-carbonyl]amino}propionic acid] was run?
The IC50 was 18.9 µM.

For `O=C(NC(Cc1ccc(Cl)cc1)C(=O)O)c1cc(N2CCN(c3ccccn3)CC2)nc(N2CCN(c3ccccn3)CC2)n1` (stereo not drawn) [Compound 67, 2-{[2,6-Bis-(4-pyridin-2-yl-piperazin-1-yl)pyrimidine-4-carbonyl]amino}-3-(4-chlorophenyl)propionic acid], which IC50 is on record?
The IC50 was 65.6 µM.

How did the IC50 turn out when `O=C(NC(Cc1ccc(Cl)cc1)C(=O)O)c1cc(N2CCN(c3ccccn3)CC2)nc(-c2ccc([N+](=O)[O-])cc2)n1` (stereo not drawn) [Compound 68, 3-(4-Chlorophenyl)-2-{[2-(4-nitrophenyl)-6-(4-pyridin-2-yl-piperazin-1-yl)-pyrimidine-4-carbonyl]amino}propionic acid] was run?
Its IC50 is 21.1 µM.

Which IC50 does the source give for `O=C(N[C@@H](CSCc1ccccc1)C(=O)O)c1cc(N2CCC(Cc3ccccc3)CC2)nc(-c2ccc(C(F)(F)F)cc2)n1` [Compound 77, (R)-2-{[6-(4-Benzylpiperidin-1-yl)-2-(4-trifluoromethylphenyl)pyrimidine-4-carbonyl]amino}3-benzylsulfanylpropionic acid] here?
The IC50 was 92.8 µM.

`O=C(N[C@@H](CSCc1ccccc1)C(=O)O)c1cc(N2CCC(Cc3ccccc3)CC2)nc(-c2ccc(Cl)cc2)n1` [Compound 78, (R)-2-{[6-(4-Benzylpiperidin-1-yl)-2-(4-chlorophenyl)pyrimidine-4-carbonyl]-amino}-3-benzylsulfanylpropionic acid] was tested. Which IC50 did it give?
Its IC50 is 42.4 µM.
